Reference: US8383627B2, “Crystalline polymorph of doxazosin mesylate (form IV) and process for preparation thereof” (CIPLA Limited, priority 2007, dated 2013)
Where a name gives a salt, the structure may show the parent alone. Blank lines part the entries; values can stand above or below the molecule they belong to.

Test: Comparative intrinsic dissolution study
Format: physicochemical
Conditions: for % Release of Doxazosin Mesylate: 50 mg pellet, 900 ml 0.01N HCl, 37±0.5° C., paddle 50 rpm
Experimental: To measure the intrinsic dissolution of the doxazosin mesylate Form IV, Form M and Form D, samples were measured to compare the influence of the different parameter settings. At appropriate time intervals, an automated sample collector removes aliquots from dissolution medium for analysis. The time interval for sampling can vary, for example, from 2 to 30 minutes, depending on the properties of the drug and dissolution medium used. Suitable dissolution equipment for these operations include LAB INDIA DISSO 2000.
A tableting mixture (50 mg) comprising solely doxazosin mesylate (i.e. with no excipients) was prepared and compressed to a pellet using a manual hand press operating at a compression pressure of 5 tones for 5 minutes.
In-vitro dissolutions studies were performed on the 50 mg pellet in a LAB INDIA DISSO 2000.
The pellet was fixed in a PFTE holder, such that only the pellet surface came into contact with the dissolution medium. The PFTE loaded holder was placed in the dissolution vessel containing 900 ml of 0.01N HCl at 37±0.5° C. Three pellets were measured for each run of the design of the experiments. Stirring was performed with a paddle rotating at 50 rpm. The dissolution was followed up to 1440 min and the concentration of active ingredient, doxazosin mesylate, dissolved in the test medium was determined by removing samples of 10 ml at the specified time.
The concentration of doxazosin mesylate was quantified by HPLC UV method at a maximum wavelength of 245 nm under conditions as specified: • Mobile Phase: 450:450:100:: Buffer:MeOH:Acetonitrile • Buffer: 0.3% v/v Diethylamine. The pH adjusted to 2.5 with orthophosphoric acid • Column: Inersil ODS 15 cm • Flow: 1.0 ml/min
The percentage of doxazosin mesylate released was plotted against time. The intrinsic dissolution rate was derived from the slope of this curve.

% Release of Doxazosin Mesylate (5 minutes, listed as Form -D): 1.8%
% Release of Doxazosin Mesylate (15 minutes, listed as Form -D): 3.5%
% Release of Doxazosin Mesylate (30 minutes, listed as Form -D): 6.1%
% Release of Doxazosin Mesylate (45 minutes, listed as Form -D): 8.8%
% Release of Doxazosin Mesylate (60 minutes, listed as Form -D): 10.7%
% Release of Doxazosin Mesylate (120 minutes, listed as Form -D): 18.5%
% Release of Doxazosin Mesylate (180 minutes, listed as Form -D): 27.0%
% Release of Doxazosin Mesylate (240 minutes, listed as Form -D): 32.3%
% Release of Doxazosin Mesylate (360 minutes, listed as Form -D): 51.0%
% Release of Doxazosin Mesylate (480 minutes, listed as Form -D): 65.1%
% Release of Doxazosin Mesylate (600 minutes, listed as Form -D): 72.7%
% Release of Doxazosin Mesylate (720 minutes): 74.5%
% Release of Doxazosin Mesylate (720 minutes, listed as Form -D): 74.5%
% Release of Doxazosin Mesylate (900 minutes, listed as Form -D): 76.0%
% Release of Doxazosin Mesylate (1080 minutes, listed as Form -D): 75.8%
% Release of Doxazosin Mesylate (1260 minutes, listed as Form -D): 75.6%
SMILES: COc1cc2nc(N3CCN(C(=O)C4COc5ccccc5O4)CC3)nc(N)c2cc1OC (stereo not drawn) [Form D, doxazosin mesylate]

% Release of Doxazosin Mesylate (5 minutes, monomethanesulfonate): 1.6%
% Release of Doxazosin Mesylate (15 minutes, monomethanesulfonate): 3.6%
% Release of Doxazosin Mesylate (30 minutes, monomethanesulfonate): 6.6%
% Release of Doxazosin Mesylate (45 minutes, monomethanesulfonate): 9.5%
% Release of Doxazosin Mesylate (60 minutes, monomethanesulfonate): 12.0%
% Release of Doxazosin Mesylate (120 minutes, monomethanesulfonate): 21.8%
% Release of Doxazosin Mesylate (180 minutes, monomethanesulfonate): 34.5%
% Release of Doxazosin Mesylate (240 minutes, monomethanesulfonate): 45.7%
% Release of Doxazosin Mesylate (360 minutes, monomethanesulfonate): 66.2%
% Release of Doxazosin Mesylate (480 minutes, monomethanesulfonate): 77.4%
% Release of Doxazosin Mesylate (600 minutes, monomethanesulfonate): 80.0%
% Release of Doxazosin Mesylate (720 minutes, listed as Form -IV, monomethanesulfonate): 81.1%
% Release of Doxazosin Mesylate (720 minutes, monomethanesulfonate): 81.1%
% Release of Doxazosin Mesylate (900 minutes, monomethanesulfonate): 79.7%
% Release of Doxazosin Mesylate (1080 minutes, monomethanesulfonate): 79.2%
% Release of Doxazosin Mesylate (1260 minutes, monomethanesulfonate): 77.6%
higher dissolution rate compared with known Form D (at 30 minutes): 8%
higher dissolution rate compared with known Form D (at 60 minutes): 10.84%
higher dissolution rate compared with known Form D (at 120 minutes): 15.14%
higher dissolution rate compared with known Form D (at 180 minutes): 21.74%
higher dissolution rate compared with known Form D (at 240 minutes): 29.33%
rate of dissolution (compared with known forms, Form M and Form D): superior rate of dissolution
SMILES: COc1cc2nc(N3CCN(C(=O)C4COc5ccccc5O4)CC3)nc(N)c2cc1OC (stereo not drawn) [Form IV, 1-(4-amino-6,7-dimethoxy-2-quinazolinyl)-4-(2,3-dihydro-1,4-benzodioxin-2-yl)carbonyl piperazine monomethanesulfonate]

% Release of Doxazosin Mesylate (5 minutes, listed as Form -M): 1.5%
% Release of Doxazosin Mesylate (15 minutes, listed as Form -M): 2.8%
% Release of Doxazosin Mesylate (30 minutes, listed as Form -M): 5.0%
% Release of Doxazosin Mesylate (45 minutes, listed as Form -M): 6.5%
% Release of Doxazosin Mesylate (60 minutes, listed as Form -M): 8.1%
% Release of Doxazosin Mesylate (120 minutes, listed as Form -M): 14.1%
% Release of Doxazosin Mesylate (180 minutes, listed as Form -M): 20.8%
% Release of Doxazosin Mesylate (240 minutes, listed as Form -M): 26.5%
% Release of Doxazosin Mesylate (360 minutes, listed as Form -M): 39.5%
% Release of Doxazosin Mesylate (480 minutes, listed as Form -M): 50.2%
% Release of Doxazosin Mesylate (600 minutes, listed as Form -M): 58.8%
% Release of Doxazosin Mesylate (720 minutes, listed as Form -M): 67.0%
% Release of Doxazosin Mesylate (720 minutes, listed as form M): 67.0%
% Release of Doxazosin Mesylate (900 minutes, listed as Form -M): 74.9%
% Release of Doxazosin Mesylate (1080 minutes, listed as Form -M): 78.0%
% Release of Doxazosin Mesylate (1260 minutes, listed as Form -M): 79.5%
SMILES: COc1cc2nc(N3CCN(C(=O)C4COc5ccccc5O4)CC3)nc(N)c2cc1OC (stereo not drawn) [Form M, doxazosin mesylate]
